Source: patent US20070093520A1, “Method of treatment of diarrhea-predominant irritable bowel syndrome in a subject” (priority 2005, published 2007)

Tested on: diarrhea-predominant IBS subjects
Assay: 3007 Study: open-label 52-week safety study, adverse events and withdrawals
[1] = Overall, N=536, % of appropriate gender

## Cc1nccn1C[C@H]1CCc2c(c3cccc4c3n2CCC4)C1=O [cilansetron, (R)-(−)-4,5,6,8,9,10-hexahydro-10-[(2-methyl-1H-imidazol-1-yl)methyl]-11H-pyrido-[3,2,1-jk]-carbazol-11-one]
Overall, N=536
  TEAE leading to permanent discontinuation: Dyspepsia: 2 (<1%) n (%)
  TEAE leading to permanent discontinuation: Ear and Labyrinth Disorders: 1 (<1%) n (%)
  TEAE leading to permanent discontinuation: Epigastric Discomfort: 1 (<1%) n (%)
  TEAE leading to permanent discontinuation: Eructation: 1 (<1%) n (%)
  TEAE leading to permanent discontinuation: Eye Disorders: 1 (<1%) n (%)
  TEAE leading to permanent discontinuation: Faecal Abnormality NOS: 1 (<1%) n (%)
  TEAE leading to permanent discontinuation: Faecal Impaction: 1 (<1%) n (%)
  TEAE leading to permanent discontinuation: Faecal Incontinence: 1 (<1%) n (%)
  TEAE leading to permanent discontinuation: Faeces Hard: 1 (<1%) n (%)
  TEAE leading to permanent discontinuation: Fatigue: 4 (<1%) n (%)
  TEAE leading to permanent discontinuation: Fibroma NOS: 1 (<1%) n (%)
  TEAE leading to permanent discontinuation: Flatulence: 7 (1%) n (%)
  TEAE leading to permanent discontinuation: Gastric Irritation: 1 (<1%) n (%)
  TEAE leading to permanent discontinuation: Gastrointestinal Disorders: 64 (12%) n (%)
  TEAE leading to permanent discontinuation: Gastrointestinal Motility Disorder NOS: 1 (<1%) n (%)
  TEAE leading to permanent discontinuation: General Disorders and Administration Site Conditions: 7 (1%) n (%)
  TEAE leading to permanent discontinuation: Haemorrhoidal Haemorrhage: 1 (<1%) n (%)
  TEAE leading to permanent discontinuation: Hallucination NOS: 1 (<1%) n (%)
  TEAE leading to permanent discontinuation: Hallucination, Auditory: 1 (<1%) n (%)
  TEAE leading to permanent discontinuation: Headache NOS: 4 (<1%) n (%)
  TEAE leading to permanent discontinuation: Headache NOS Aggravated: 1 (<1%) n (%)
  TEAE leading to permanent discontinuation: Heart Rate Increased: 1 (<1%) n (%)
  TEAE leading to permanent discontinuation: Hepatobiliary Disorders: 1 (<1%) n (%)
  TEAE leading to permanent discontinuation: Hepatosplenomegaly NOS: 1 (<1%) n (%)
  TEAE leading to permanent discontinuation: Hiatus Hernia: 1 (<1%) n (%)
  TEAE leading to permanent discontinuation: Investigations: 5 (<1%) n (%)
  TEAE leading to permanent discontinuation: Irritable Bowel Syndrome Aggravated: 1 (<1%) n (%)
  TEAE leading to permanent discontinuation: Lethargy: 1 (<1%) n (%)
  TEAE leading to permanent discontinuation: Metabolism and Nutrition Disorders: 1 (<1%) n (%)
  TEAE leading to permanent discontinuation: Migraine NOS: 1 (<1%) n (%)
  TEAE leading to permanent discontinuation: Muscle Cramps: 2 (<1%) n (%)
  TEAE leading to permanent discontinuation: Musculoskeletal and Connective Tissue Disorders: 7 (1%) n (%)
  TEAE leading to permanent discontinuation: Nausea: 3 (<1%) n (%)
  TEAE leading to permanent discontinuation: Neoplasms Benign, Malignant and Unspecified (Incl Cysts and Polyps): 5 (<1%) n (%)
  TEAE leading to permanent discontinuation: Nervous System Disorders: 8 (1%) n (%)
  TEAE leading to permanent discontinuation: Pregnancy, Puerperium and Perinatal Conditions: 1 (<1%) n (%)
  TEAE leading to permanent discontinuation: Pruritus NOS: 1 (<1%) n (%)
  TEAE leading to permanent discontinuation: Psychiatric Disorders: 1 (<1%) n (%)
  TEAE leading to permanent discontinuation: Psychotic Disorder NOS: 1 (<1%) n (%)
  TEAE leading to permanent discontinuation: Rash Macular: 1 (<1%) n (%)
  TEAE leading to permanent discontinuation: Rash NOS: 1 (<1%) n (%)
  TEAE leading to permanent discontinuation: Rectal Disorder NOS: 1 (<1%) n (%)
  TEAE leading to permanent discontinuation: Rectal Haemorrhage: 4 (<1%) n (%)
  TEAE leading to permanent discontinuation: Rectal Tenesmus: 1 (<1%) n (%)
  TEAE leading to permanent discontinuation: Renal and Urinary Disorders: 1 (<1%) n (%)
  TEAE leading to permanent discontinuation: Respiratory, Thoracic and Mediastinal Disorders: 3 (<1%) n (%)
  TEAE leading to permanent discontinuation: Skin and Subcutaneous Tissue Disorders: 4 (<1%) n (%)
  TEAE leading to permanent discontinuation: Somnolence: 1 (<1%) n (%)
  TEAE leading to permanent discontinuation: Stomach Discomfort: 1 (<1%) n (%)
  TEAE leading to permanent discontinuation: Suicidal Ideation: 1 (<1%) n (%)
  TEAE leading to permanent discontinuation: Urticaria NOS: 1 (<1%) n (%)
  TEAE leading to permanent discontinuation: Vertigo: 1 (<1%) n (%)
  TEAE leading to permanent discontinuation: Visual Acuity Reduced: 1 (<1%) n (%)
  TEAE leading to permanent discontinuation: Vomiting NOS: 1 (<1%) n (%)
  TEAE leading to permanent discontinuation: White Blood Cells Urine Positive: 1 (<1%) n (%)
  Total Number of Subjects with at Least One TEAE Leading to Discontinuation of Study Medication: 83 (15%) n (%)
[1]
  TEAE leading to permanent discontinuation: Benign Ovarian Tumour*: 1 (<1%) n (%)
  TEAE leading to permanent discontinuation: Breast Cancer NOS*: 2 (<1%) n (%)
  TEAE leading to permanent discontinuation: Ovarian Cancer NOS*: 1 (<1%) n (%)
  TEAE leading to permanent discontinuation: Ovarian Cystadenofibroma*: 1 (<1%) n (%)
  TEAE leading to permanent discontinuation: Pregnancy NOS*: 1 (<1%) n (%)
Overall, gender-specific
  TEAE: Female Reproductive Tract Infections*: 2 (<1%) n (%)
  TEAE: Prostate Examination Abnormal*: 1 (<1%) n (%)
  TEAE: Smear Cervix Abnormal*: 1 (<1%) n (%)
  TEAE: Vaginal Candidiasis*: 2 (<1%) n (%)
  TEAE: Vaginitis Bacterial NOS*: 1 (<1%) n (%)
  TEAE: Vaginitis*: 1 (<1%) n (%)
  TEAE: Vaginosis Fungal NOS*: 2 (<1%) n (%)
P/C group
  TEAE: Abdominal Therapeutic Procedures NEC: 1 (<1%) n (%)
  TEAE: Abdominoplasty: 1 (<1%) n (%)
  TEAE: Abnormal Chest Sounds NOS: 1 (<1%) n (%)
  TEAE: Acne NOS: 0 n (%)
  TEAE: Acnes: 0 n (%)
  TEAE: Acquired Hypothyroidism: 1 (<1%) n (%)
  TEAE: Acrochordons: 1 (<1%) n (%)
  TEAE: Adenomyosis*: 0 n (%)
  TEAE: Age Related Issues: 1 (<1%) n (%)
  TEAE: Allergic Conditions NEC: 2 (<1%) n (%)
  TEAE: Allergies to Foods, Food Additives, Drugs and Other Chemicals: 1 (<1%) n (%)
  TEAE: Allergy to Insect Sting: 1 (<1%) n (%)
  TEAE: Alopecia: 1 (<1%) n (%)
  TEAE: Alopecias: 1 (<1%) n (%)
  TEAE: Amenorrhoea NOS*: 0 n (%)
  TEAE: Anaemia NOS: 1 (<1%) n (%)
  TEAE: Anaemias NEC: 1 (<1%) n (%)
  TEAE: Angina Pectoris: 0 n (%)
  TEAE: Anorexia: 1 (<1%) n (%)
  TEAE: Anxiety: 5 (2%) n (%)
  TEAE: Anxiety Aggravated: 1 (<1%) n (%)
  TEAE: Anxiety Symptoms: 7 (3%) n (%)
  TEAE: Apocrine and Eccrine Gland Disorders: 3 (1%) n (%)
  TEAE: Appetite Disorders: 1 (<1%) n (%)
  TEAE: Arrhythmia NOS: 0 n (%)
  TEAE: Asthenic Conditions: 7 (3%) n (%)
  TEAE: Asthma Aggravated: 0 n (%)
  TEAE: Asthma NOS: 1 (<1%) n (%)
  TEAE: Atopic Disorders: 1 (<1%) n (%)
  TEAE: Atrial Fibrillation: 0 n (%)
  TEAE: Atrioventricular Block First Degree: 0 n (%)
  TEAE: Basal Cell Carcinoma: 4 (1%) n (%)
  TEAE: Behaviour and Socialisation Disturbances: 1 (<1%) n (%)
  TEAE: Benign Ovarian Tumour*: 1 (<1%) n (%)
  TEAE: Biliary Tract Disorder NOS: 1 (<1%) n (%)
  TEAE: Binocular Eye Movement Disorder NOS: 1 (<1%) n (%)
  TEAE: Bladder Disorders NEC: 1 (<1%) n (%)
  TEAE: Bladder Infections and Inflammations: 1 (<1%) n (%)
  TEAE: Bladder Prolapse: 1 (<1%) n (%)
  TEAE: Bladder and Urethral Symptoms: 1 (<1%) n (%)
  TEAE: Blood and Lymphatic System Disorders: 2 (<1%) n (%)
  TEAE: Bone Neoplasm Malignant: 0 n (%)
  TEAE: Bone Neoplasms Malignant (Excl Sarcomas): 0 n (%)
  TEAE: Bradyarrhythmia: 1 (<1%) n (%)
  TEAE: Breast Calcifications*: 1 (<1%) n (%)
  TEAE: Breast Cancer NOS*: 2 (1%) n (%)
  TEAE: Breast Disorder NOS*: 1 (<1%) n (%)
  TEAE: Breast Disorders NEC*: 4 (2%) n (%)
  TEAE: Breast Mass NOS*: 2 (1%) n (%)
  TEAE: Breast and Nipple Neoplasms Malignant*: 2 (1%) n (%)
  TEAE: Breath Sounds Decreased: 0 n (%)
  TEAE: Breathing Abnormalities: 1 (<1%) n (%)
  TEAE: Bronchospasm and Obstruction: 1 (<1%) n (%)
  TEAE: Bruising, Ecchymosis and Purpura: 0 n (%)
  TEAE: Bundle Branch Block Right: 0 n (%)
  TEAE: Calculus Renal NOS: 0 n (%)
  TEAE: Calculus Ureteric: 0 n (%)
  TEAE: Cardiac Conduction Disorders: 0 n (%)
  TEAE: Cardiac Disorders: 6 (2%) n (%)
  TEAE: Cardiac Fibrillation NOS: 1 (<1%) n (%)
  TEAE: Cardiac Flutter: 1 (<1%) n (%)
  TEAE: Cardiac Signs and Symptoms NEC: 2 (<1%) n (%)
  TEAE: Cataract Unilateral: 0 n (%)
  TEAE: Cataracts (Excl Congenital): 1 (<1%) n (%)
  TEAE: Cerumen Impaction: 0 n (%)
  TEAE: Chest Discomfort: 1 (<1%) n (%)
  TEAE: Chest Pain: 4 (1%) n (%)
  TEAE: Chest Tightness: 0 n (%)
  TEAE: Cholecystitis and Cholelithiasis: 0 n (%)
  TEAE: Cholelithiasis: 0 n (%)
  TEAE: Congenital, Familial and Genetic Disorders: 1 (<1%) n (%)
  TEAE: Conjunctival Infections, Irritations and Inflammations: 0 n (%)
  TEAE: Conjunctivitis: 0 n (%)
  TEAE: Conjunctivitis Allergic: 0 n (%)
  TEAE: Contusion: 2 (<1%) n (%)
  TEAE: Cough: 6 (2%) n (%)
  TEAE: Coughing and Associated Symptoms: 6 (2%) n (%)
  TEAE: Cyst NOS: 0 n (%)
  TEAE: Cystitis Interstitial: 1 (<1%) n (%)
  TEAE: Dacryostenosis Acquired: 0 n (%)
  TEAE: Deafness NOS: 0 n (%)
  TEAE: Dehydration: 1 (<1%) n (%)
  TEAE: Depression: 5 (2%) n (%)
  TEAE: Depression Aggravated: 1 (<1%) n (%)
  TEAE: Depressive Disorders: 6 (2%) n (%)
  TEAE: Dermal and Epidermal Conditions NEC: 4 (1%) n (%)
  TEAE: Dermatitis Allergic: 1 (<1%) n (%)
  TEAE: Dermatitis Ascribed to Specific Agent: 1 (<1%) n (%)
  TEAE: Dermatitis Contact: 1 (<1%) n (%)
  TEAE: Dermatitis Medicamentosa: 1 (<1%) n (%)
  TEAE: Dermatitis NOS: 1 (<1%) n (%)
  TEAE: Dermatitis and Eczema: 4 (1%) n (%)
  TEAE: Dermographism: 1 (<1%) n (%)
  TEAE: Diabetes Mellitus (Incl Subtypes): 1 (<1%) n (%)
  TEAE: Diabetes Mellitus Aggravated: 1 (<1%) n (%)
  TEAE: Diabetes Mellitus Non-Insulin-Dependent: 0 n (%)
  TEAE: Disturbances in Initiating and Maintaining Sleep: 0 n (%)
  TEAE: Drug Hypersensitivity: 0 n (%)
  TEAE: Dry Eye NOS: 0 n (%)
  TEAE: Dysfunctional Uterine Bleeding*: 0 n (%)
  TEAE: Dyshidrosis: 1 (<1%) n (%)
